Measurements: patent publication US6989401B2, “Sulfonic acid derivatives of hydroxamic acids and their use as medicinal products” (Mitsubishi Pharma Corporation, priority 2000, dated 2006)

system: LPS in E. coli culture supernatant (E. coli NIHJ JC-2 strain); assay: Inhibitory effect on LPS in E. coli culture supernatant; assay type: cell-based; conditions: relative ratio to the inhibitory ratio of the compound of Example 1 as 1.0; compound 100 μM, 24 hr
Description: One platinum loop of E. coli NIHJ JC-2 strain was inoculated into a test tube containing heart infusion broth (HIB, 5 mL) and cultured for about 24 hr. The bacterial culture broth was washed three times by centrifugation (3000 rpm, 15 min, 20° C., TOMY Seiko, RL-131) using 10 mL of fresh HIB medium for one cycle of washing. The washed bacteria were prepared to an about 10^7 colony forming unit (CFU)/mL with a fresh HIB medium, and 0.2 mL of the prepared bacterial suspension was inoculated into an Erlenmeyer flask containing a fresh HIB medium (18.8 mL) (i.e., to final bacterial concentration of about 10^5 CFU/mL). A solution (1 mL) of each compound prepared to a concentration of 2 mM (final concentration of compound 100 μM) was added to the culture broth containing the bacteria. Using a shaker (RGR-1 type, manufactured by IWASHIYA, Ltd.), shake culture was conducted at 37° C., and 2 mL of culture broth after 24 hr was sampled. The sampled culture broth was filtered (DISMIC, 0.45 μm, Advantech Toyo) and diluted 10^5-fold with sterile distilled water. The resulting suspension (200 μL) was added to a limulus reagent (LAL ES, Wako Pure Chemical Industries) and LPS concentration was measured using Toxinometer MT-285 (Wako Pure Chemical Industries) preheated to 37° C.
The LPS inhibitory ratio of the compound was calculated as a ratio of the LPS concentration of the compound addition group relative to the LPS concentration of the compound non-addition group. […] The inhibitory ratio of each compound is shown in the following in Table 1 as a relative ratio to the inhibitory ratio of the compound of Example 1 as 1.0.

Row | Structure (SMILES) | inhibitory effect of compound on LPS in E. coli culture supernatant, relative ratio
1 | CC(C)C[C@@H](C(=O)N[C@@H](Cc1ccccc1)C(=O)NCS(=O)(=O)[O-])C(Cc1ccc2ccccc2c1)C(=O)NO.[Na+] (single isomer, unassigned) [Example 25, 5-methyl-2(R or S)-(2-naphthylmethyl)-3(R)-[2-phenyl-1(S)-(sulfomethylcarbamoyl)ethylcarbamoyl]hexanohydroxamic acid sodium salt] | 0.33
2 | CC(C)C[C@@H](C(=O)N[C@@H](Cc1ccccc1)C(=O)NCCS(=O)(=O)[O-])C(Cc1ccc2ccccc2c1)C(=O)NO.[Na+] (single isomer, unassigned) [Example 26, 5-methyl-2(R or S)-(2-naphthylmethyl)-3(R)-[2-phenyl-1(S)-(2-sulfoethylcarbamoyl)ethylcarbamoyl]hexanohydroxamic acid sodium salt] | 0.54

same assay, conditions: relative ratio to the inhibitory ratio of the compound of Example 1 as 1.0; compound 100 μM, 24 hr; sodium salt

Row | Structure (SMILES) | inhibitory effect of compound on LPS in E. coli culture supernatant, relative ratio
3 | CNC(=O)[C@@H](Cc1ccc(OCCCS(=O)(=O)[O-])cc1)NC(=O)[C@H](CC(C)C)C(CN1C(=O)c2ccccc2C1=O)C(=O)NO.[Na+] (single isomer, unassigned) [Example 5, 5-methyl-3(R)-{1(R)-methylcarbamoyl-2-[4-(3-sulfopropoxy)phenyl]ethylcarbamoyl}-2(R or S)-phthalimidomethylhexanohydroxamic acid sodium salt] | 0.80
4 | CNC(=O)[C@H](Cc1ccc(OCCCS(=O)(=O)[O-])cc1)NC(=O)[C@@H](CC(C)C)C(CN1C(=O)c2ccccc2C1=O)C(=O)NO.[Na+] (single isomer, unassigned) [Example 7, 5-methyl-3(S)-{1(S)-methylcarbamoyl-2-[4-(3-sulfopropoxy)phenyl]ethylcarbamoyl}-2(R or S)-phthalimidomethylhexanohydroxamic acid sodium salt] | 0.79
5 | CNC(=O)[C@H](Cc1ccc(OCCCS(=O)(=O)[O-])cc1)NC(=O)[C@H](CC(C)C)C(CN1C(=O)c2ccccc2C1=O)C(=O)NO.[Na+] (single isomer, unassigned) [Example 4, 5-methyl-3(R)-{1(S)-methylcarbamoyl-2-[4-(3-sulfopropoxy)phenyl]ethylcarbamoyl}-2(R or S)-phthalimidomethylhexanohydroxamic acid sodium salt] | 0.69
6 | CNC(=O)[C@@H](Cc1ccc(OCCCS(=O)(=O)[O-])cc1)NC(=O)[C@@H](CC(C)C)C(CN1C(=O)c2ccccc2C1=O)C(=O)NO.[Na+] (single isomer, unassigned) [Example 8, 5-methyl-3(S)-{1(R)-methylcarbamoyl-2-[4-(3-sulfopropoxy)phenyl]ethylcarbamoyl}-2(R or S)-phthalimidomethylhexanohydroxamic acid sodium salt] | 0.60
7 | CNC(=O)[C@@H](Cc1ccc(OCCCS(=O)(=O)[O-])cc1)NC(=O)[C@H](CC(C)C)C(CN1C(=O)c2ccccc2C1=O)C(=O)NO.[Na+] (single isomer, unassigned) [Example 3, 5-methyl-3(R)-{1(R)-methylcarbamoyl-2-[4-(3-sulfopropoxy)phenyl]ethylcarbamoyl}-2(R or S)-phthalimidomethylhexanohydroxamic acid sodium salt] | 0.70
8 | CNC(=O)[C@@H](Cc1ccc(OCCCS(=O)(=O)[O-])cc1)NC(=O)[C@@H](CC(C)C)C(CN1C(=O)c2ccccc2C1=O)C(=O)NO.[Na+] (single isomer, unassigned) [Example 6, 5-methyl-3(S)-{1(R)-methylcarbamoyl-2-[4-(3-sulfopropoxy)phenyl]ethylcarbamoyl}-2(R or S)-phthalimidomethylhexanohydroxamic acid sodium salt] | 0.69
